Series [1] is described as follows: Solubility of compound in pH 4 0.1 M acetate buffer using crystalline form of sample. Type of series: physicochemical.
Series [2] can be described thus: Drug metabolism in human liver microsome assessed as (1S,3R)-3-acetamido-N-(5-chloro-4-(5-(4-hydroxybutyl)-1H-pyrazol-4-yl)pyridin-2-yl)cyclohexanecarboxamide formation at 10 uM measured after 1 hr in presence of NADPH by LC-UV-MS analysis. In kind it is ADME. The settings on record: microsomes. A general note: Liver microsomes are vesicles of endoplasmic reticulum, rich in cytochrome P450 enzymes.

The nature of series [3]: Drug metabolism in human liver microsome assessed as (1S,3R)-3-acetamido-N-(5-chloro-4-(7-hydroxy-4,5,6,7-tetrahydropyrazolo[1,5-a]pyridin-3-yl)pyridin-2-yl)cyclohexanecarboxamide formation at 10 uM measured after 1 hr in presence of NADPH by LC-UV-MS analysis. In kind it is ADME. The settings on record: microsomes.
Series [4] is described as follows: Drug metabolism in human hepatocytes assessed as (1S,3R)-3-acetamido-N-(5-chloro-4-(5-(4-hydroxybutyl)-1H-pyrazol-4-yl)pyridin-2-yl)cyclohexanecarboxamide metabolite formation. Type of series: ADME, cell-based, Hepatocyte.
Series [5] can be described thus: Drug metabolism in human hepatocytes assessed as (1S,3R)-3-acetamido-N-(5-chloro-4-(7-hydroxy-4,5,6,7-tetrahydropyrazolo[1,5-a]pyridin-3-yl)pyridin2-yl)cyclohexanecarboxamide metabolite formation. In kind it is ADME, cell-based, Hepatocyte.
Series [6] in a line: Volume of distribution at steady state in Beagle dog at 5.2 umol/kg, iv administered as 0.25 hrs formulated as solution in 5% DMSO. Type of series: ADME, organism-based, Canis lupus familiaris. The settings on record: in vivo, dose 5.2 µmol/kg, read-out: Vdss.
Series [7] in a line: Clearance in Beagle dog plasma at 5.2 umol/kg, iv administered over 0.25 hrs formulated as solution in 5% DMSO. In kind it is ADME, organism-based, Canis lupus familiaris. The settings on record: dose 5.2 µmol/kg.
The species entered for series [8] is Homo sapiens. Kind of series: Selectivity ratio of IC50 for human recombinant N-terminal GST-TEV tagged CDK12 (696 to 1082 residues)/full length human CyclinK expressed in baculovirus expression system to IC50 for Inhibition of recombinant full length human N-terminal GST-fused CDK9 (1 to 372 residues)/His-tagged CyclinT1 (1 to 726 residues) expressed in baculovirus infected insect cells.

Series [9] is filed under the species Homo sapiens. Briefly: Selectivity ratio of IC50 for recombinant full length human CDK7/cyclinH1/MAT1 expressed in insect cells to IC50 for Inhibition of recombinant full length human N-terminal GST-fused CDK9 (1 to 372 residues)/His-tagged CyclinT1 (1 to 726 residues) expressed in baculovirus infected insect cells.
The species entered for series [10] is Homo sapiens. Kind of series: Selectivity ratio of IC50 for CDK6 (unknown origin) in presence of 5 mM ATP to IC50 for Inhibition of recombinant full length human N-terminal GST-fused CDK9 (1 to 372 residues)/His-tagged CyclinT1 (1 to 726 residues) expressed in baculovirus infected insect cells.
For series [11], the species on record is Homo sapiens. Kind of series: Selectivity ratio of IC50 for CDK4 (unknown origin) in presence of 5 mM ATP to IC50 for Inhibition of recombinant full length human N-terminal GST-fused CDK9 (1 to 372 residues)/His-tagged CyclinT1 (1 to 726 residues) expressed in baculovirus infected insect cells.
For series [12], the species on record is Homo sapiens. Kind of series: Selectivity ratio of IC50 for recombinant full length human CDK2/CyclinE expressed in insect cells to IC50 for Inhibition of recombinant full length human N-terminal GST-fused CDK9 (1 to 372 residues)/His-tagged CyclinT1 (1 to 726 residues) expressed in baculovirus infected insect cells.
Series [13] is described as follows: Drug metabolism in human hepatocytes assessed as (1S,3R)-3-acetamido-N-(5-fluoro-4-(5-(3-hydroxy-2,2-dimethylpropyl)-1H-pyrazol-4-yl)pyridin-2-yl)cyclohexanecarboxamide metabolite formation. Type of series: ADME, cell-based, Hepatocyte.
Series [14] is described as follows: Drug metabolism in human hepatocytes assessed as (1S,3R)-3-acetamido-N-(5-fluoro-4-(6-hydroxy-5,5-dimethyl-5,6-dihydro-4H-pyrrolo[1,2-b]pyrazol-3-yl)pyridin-2-yl)cyclohexanecarboxamide metabolite formation. In kind it is ADME, cell-based, Hepatocyte.
The nature of series [15]: Half-life in Beagle dog at […], iv administered over 0.25 hrs formulated as solution in DMSO/Captisol. Type of series: ADME, organism-based, Canis lupus familiaris. The settings on record: in vivo, dose 0.24 µmol/kg.
Series [16] is described as follows: Clearance in Beagle dog plasma at […], iv administered as 0.25 hrs infusion. In kind it is ADME, organism-based, Canis lupus familiaris. The settings on record: dose 0.24 µmol/kg.
The nature of series [17]: Clearance in mouse plasma at […], iv. The settings on record: dose 2.4 µmol/kg. Type of series: ADME.
Series [18] deals with Cyclin-dependent kinase 9 (Homo sapiens, UniProt P50750). Kind of series: Inhibition of CDK9 in human MCF7 cells assessed as reduction in RNA Polymerase 2 CTD phosphorylation at Ser2 residues measured after 6 hrs by immunofluorescence assay. Type of series: cell-based.
Another series deals with NOMO-1. Briefly: Antitumor activity against human NOMO1 cells xenografted in CB17 SCID mouse assessed as tumor growth inhibition at 5 mg/kg, ip BID administered at 2 hrs dosing interval with 2 days on and 5 days off dosing schedule measured 12 days post initial dose. Type of series: functional. The settings on record: NOMO-1, ip, 288 h, time 12 day, read-out: TGI. (In xenograft studies the graft and the host belong to different species.)

In another series the test system is MV4-11. Briefly: Antitumor activity against human MV4-11 cells xenografted in CB17 SCID mouse assessed as tumor growth inhibition at 5 mg/kg, ip BID administered at 2 hrs dose interval with 2 days on and 5 days off dosing schedule measured 33 days post initial dose. Type of series: functional. The settings on record: MV4-11, ip, 792 h, time 33 day, read-out: TGI.

A short description of series [19]: Drug metabolism in human liver microsome assessed as (1S,3R)-3-acetamido-N-(5-chloro-4-(6-hydroxy-5,5-dimethyl-5,6-dihydro-4H-pyrrolo[1,2-b]pyrazol-3-yl)pyridin-2-yl)cyclohexanecarboxamide formation at 10 uM measured after 1 hr in presence of NADPH by LC-UV-MS analysis. Type of series: ADME. The settings on record: microsomes.
Series [20] in a line: Drug metabolism in human hepatocytes assessed as (1S,3R)-3-acetamido-N-(5-chloro-4-(6-hydroxy-5,5-dimethyl-5,6-dihydro-4H-pyrrolo[1,2-b]pyrazol-3-yl)pyridin-2-yl)cyclohexanecarboxamide metabolite formation. Type of series: ADME, cell-based, Hepatocyte.
Series [21] is described as follows: Half-life in Beagle dog at 0.23 umol/kg, iv administered over 0.25 hrs formulated as solution in 10% DMSO/90% water. In kind it is ADME, organism-based, Canis lupus familiaris. The settings on record: in vivo, dose 0.23 µmol/kg.
Series [22] is described as follows: Volume of distribution at steady state in cynomolgus monkey at 0.46 umol/kg, iv administered over 0.25 hrs formulated as solution in DMA/PEG400/Tween80. In kind it is ADME, organism-based, Macaca fascicularis. The settings on record: in vivo, dose 0.46 µmol/kg, read-out: Vdss.
Series [23] is described as follows: Volume of distribution at steady state in mouse at 2.3 umol/kg, iv formulated as solution. Type of series: ADME, organism-based. The settings on record: in vivo, dose 2.3 µmol/kg, read-out: Vdss.
Series [24] can be described thus: Clearance in mouse plasma at 2.3 umol/kg, iv formulated as solution. Type of series: ADME, organism-based. The settings on record: dose 2.3 µmol/kg.
Series [25] has as its target Casein kinase I isoform gamma-1 (Homo sapiens, UniProt Q9HCP0). Briefly: Inhibition of CK1gamma1 (unknown origin) in presence of 5 mM ATP.
Series [26] addresses Glycogen synthase kinase-3 beta (Homo sapiens, UniProt P49841). Kind of series: Inhibition of GSK3beta (unknown origin) at 0.1 uM incubated for 60 mins by TR-FRET based LanthaScreen Eu kinase binding assay relative to control. On the technique in general: TR-FRET usually uses a lanthanide donor and a delayed reading to cut background.
Series [27] concerns the target Mitogen-activated protein kinase 8 (Homo sapiens, UniProt P45983). Briefly: Inhibition of human recombinant full-length JNK1 using ATF2 as substrate at1 uM incubated for 40 mins in presence of [gamma32P]-ATP by scintillation counting method relative to control. The settings on record: dose 1.0 µM.

Converted amounts (≈) assume the structure as drawn.

Sequence of Mitogen-activated protein kinase 8 (P45983 whole entry): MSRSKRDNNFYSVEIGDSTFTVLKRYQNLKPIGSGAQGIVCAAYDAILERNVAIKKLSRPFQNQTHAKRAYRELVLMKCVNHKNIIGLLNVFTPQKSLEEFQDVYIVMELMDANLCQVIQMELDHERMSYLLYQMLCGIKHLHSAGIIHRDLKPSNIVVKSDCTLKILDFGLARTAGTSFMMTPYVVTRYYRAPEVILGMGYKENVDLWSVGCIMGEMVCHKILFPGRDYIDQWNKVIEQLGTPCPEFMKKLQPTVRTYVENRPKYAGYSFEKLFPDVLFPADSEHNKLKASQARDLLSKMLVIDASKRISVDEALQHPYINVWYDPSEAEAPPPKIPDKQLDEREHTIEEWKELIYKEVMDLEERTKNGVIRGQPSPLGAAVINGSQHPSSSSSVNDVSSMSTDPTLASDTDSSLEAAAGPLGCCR
Sequence of Casein kinase I isoform gamma-1 (Q9HCP0 whole entry, canonical isoform): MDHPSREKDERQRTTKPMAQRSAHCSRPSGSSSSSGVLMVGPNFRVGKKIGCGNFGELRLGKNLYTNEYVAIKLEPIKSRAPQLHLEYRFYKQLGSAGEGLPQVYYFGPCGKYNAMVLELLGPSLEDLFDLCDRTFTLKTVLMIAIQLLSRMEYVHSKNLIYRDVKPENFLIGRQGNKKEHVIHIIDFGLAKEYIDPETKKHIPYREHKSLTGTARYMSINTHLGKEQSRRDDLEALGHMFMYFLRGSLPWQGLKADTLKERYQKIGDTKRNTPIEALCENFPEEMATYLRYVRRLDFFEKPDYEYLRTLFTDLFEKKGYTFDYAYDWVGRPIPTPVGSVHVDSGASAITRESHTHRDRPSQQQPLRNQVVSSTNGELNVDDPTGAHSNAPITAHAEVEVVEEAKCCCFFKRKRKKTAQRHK
Sequence of Cyclin-dependent kinase 9 (P50750 whole entry): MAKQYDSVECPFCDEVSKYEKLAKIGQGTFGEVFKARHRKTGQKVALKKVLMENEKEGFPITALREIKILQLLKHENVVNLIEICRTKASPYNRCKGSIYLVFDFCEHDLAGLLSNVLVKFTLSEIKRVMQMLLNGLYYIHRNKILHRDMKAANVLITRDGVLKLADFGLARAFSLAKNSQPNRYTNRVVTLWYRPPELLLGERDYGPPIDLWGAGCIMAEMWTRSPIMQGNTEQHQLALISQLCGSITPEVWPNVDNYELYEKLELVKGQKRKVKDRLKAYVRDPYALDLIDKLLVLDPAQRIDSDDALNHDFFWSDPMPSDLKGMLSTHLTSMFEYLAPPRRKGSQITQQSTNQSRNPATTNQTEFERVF
Sequence of Glycogen synthase kinase-3 beta (P49841 whole entry, looked up): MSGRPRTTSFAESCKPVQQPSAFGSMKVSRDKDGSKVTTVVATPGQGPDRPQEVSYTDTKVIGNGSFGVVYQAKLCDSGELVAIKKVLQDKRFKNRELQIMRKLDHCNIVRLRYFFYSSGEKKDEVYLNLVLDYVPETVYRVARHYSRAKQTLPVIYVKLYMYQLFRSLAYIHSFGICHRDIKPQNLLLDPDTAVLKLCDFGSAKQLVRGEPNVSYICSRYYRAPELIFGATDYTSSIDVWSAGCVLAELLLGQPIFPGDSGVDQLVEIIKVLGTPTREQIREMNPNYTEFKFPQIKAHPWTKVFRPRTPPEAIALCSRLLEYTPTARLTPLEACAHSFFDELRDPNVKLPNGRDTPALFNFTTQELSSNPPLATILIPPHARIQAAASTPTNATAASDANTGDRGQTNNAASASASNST

Broadly, the solubility (thermodynamic) is the concentration in solution at equilibrium with solid. The clearance is a measure of how efficiently the substance is removed, as volume per time. Consider `CC(=O)N[C@@H]1CCC[C@H](C(=O)Nc2cc(-c3cnn4c3CCCC4)c(Cl)cn2)C1`, for which, in series [1], the thermodynamic solubility was 210 µg/mL (≈ 505 µM). Besides, the Drug metabolism entry in series [2], in [3], in series [4] and in series [5] was “Metabolite_Detected” in each case. Further, in [6], the Vd was determined as 0.9 L/kg. Besides, the clearance in series [7] was found to be 30 mL/min/kg.

For orientation: half-life means how long it takes for the measured level to halve. Broadly, the IC50 is the concentration that inhibits the measured activity by half. As to `CC(=O)N[C@@H]1CCC[C@H](C(=O)Nc2cc(-c3cnn4c3CC(C)(C)C4)c(F)cn2)C1`, the Ratio IC50 in the series filed under Homo sapiens [8], in the series listed under Homo sapiens [9], in the series listed under Homo sapiens [10], in the series listed under Homo sapiens [11] and in the series filed under Homo sapiens [12] was 16 in each case. In addition, the Drug metabolism result in series [13] and in series [14] was “Metabolite_Detected” throughout. Moreover, the half-life at 0.25 h in [15] is 25.8 min. This compound gave a clearance at 0.25 h in series [16] of 53 mL/min/kg. Besides, the clearance in series [17] was 70 mL/min/kg. Moreover, the half-maximal inhibitory concentration (IC50) in series [18] was 25 nM.

What is called inhibition is the share of the control response that was lost under treatment. Turning to `CC(=O)N[C@@H]1CCC[C@H](C(=O)Nc2cc(-c3cnn4c3CC(C)(C)C4)c(Cl)cn2)C1` [ZEMIRCICLIB], the results for the inhibition in vivo at 5 mg/kg in the series on NOMO-1 and in the series with MV4-11 were 65% and 97%, respectively. The Drug metabolism result in series [19] and in [20] was “Metabolite_Detected” each time. In [21], this compound had a half-life of 39.6 min. Further, the Vd stood at 1.3 L/kg in series [22] and 0.45 L/kg in series [23]. In addition, the clearance in [24] worked out at 55 mL/min/kg. Also, the IC50 in series [25] worked out at 5520 nM. Further, the values for the inhibition in series [26] and in [27] were 100% and 90%, respectively.
